# Assay results from EP4691462A1, “SILYBIN-CONTAINING COMPOSITION” (Tianjin Tasly Sants Pharmaceutical Co., Ltd., priority 2023, dated 2024).
# System: Col1a1-Luci-reporter luciferase in LX-2 cells
# Test: HSCs activation model based on Col1a1-Luci-reporter luciferase in transfected LX-2 cells (Duo-Lite luciferase assay; CI by CompuSyn)
# Format: cell-based, human
# Details: 10 µM, 20 µM, 50 µM, 12 hours
# Protocol: LX-2 cells were inoculated into 96-well plates and cultured to a suitable density. Then, Lipofectamine 3000 liposome transfection reagent was used to prepare transfection system. Each well was transfected with 0.1 µg plasmid, of which the Empty vector group was transfected with pEZX-FR03-hygro empty plasmid, and the Control group and other administration groups were transfected with pEZX-FR03-hygro-COL1A1-WT plasmid.
# The LX-2 cell line was transfected with plasmid for 6 hours, and then the drug-containing serum-free medium containing 2.5 mM, 5 mM, and 10 mM anti-fibrosis agent Pirfenidone was replaced according to groups for incubation for 12 hours, and then tested by the Duo-LitTM Luciferase Assay System kit.
# The cell culture plate to be tested was taken out into the incubator, and left at room temperature for 30 min to allow the temperature of the culture plate to be balanced to room temperature. Firefly luciferase activity was detected. The original culture medium was discarded, and added with 75 µl PBS, then added with Duo-Lite Luciferase detection reagent with the same volume as PBS, and was mixed evenly. The system was left at room temperature for 10 min to detect firefly luciferase luminescence.
# (§1) The LX-2 cell line was transfected with plasmid for 6 hours, and then the drug-containing serum-free medium containing 10 µM, 20 µM, 50 µM Silybin was replaced according to groups for incubation for 12 hours, and then tested by the Duo-LitTM Luciferase Assay System kit.
# as §1, with “µM silybin, 10 µM drug to be screened,” for “µM,”, “20” for “20 µM, 50”, “silybin, 20 µM drug to be screened at a mixed ratio of 1:1” for “Silybin”
# Cell activation inhibition rate% = (Control Group Firefly- Administration Group Firefly)/ Control Group Firefly ×100%. The CI value was obtained by analysis using micro-use CompuSyn software. […]
row,SMILES,inhibitory effect on activation of stellate cells in vitro
1,COc1cc(C2Oc3cc([C@H]4Oc5cc(O)cc(O)c5C(=O)[C@@H]4O)ccc3OC2CO)ccc1O (stereo partly shown) [silybin],no significant inhibitory effect

# Same assay, conditions: 5 mM and 10 mM, 12 hours, clear dose-dependence
row,SMILES,expression level of luciferase
1,Cc1ccc(=O)n(-c2ccccc2)c1 [Pirfenidone],significantly decreased

# Same assay, conditions: named drug combined with silybin, mixed ratio 1:1, 12 hours, CI<0.90 synergistic, 0.90<CI<1.10 additive
row,SMILES,CI
1,COc1ccccc1OCCNCC(O)COc1cccc2[nH]c3ccccc3c12 (stereo not shown) [carvedilol],0.11
2,COCCOC(=O)C1=C(C)NC(C)=C(C(=O)OC/C=C/c2ccccc2)C1c1cccc([N+](=O)[O-])c1 (stereo not shown) [cilnidipine],0.79
3,COC(=O)C1=C(C)NC(C)=C(C(=O)OCCN(C)Cc2ccccc2)C1c1cccc([N+](=O)[O-])c1 (stereo not shown) [nicardipine],0.31
4,CCOc1ccccc1OCCN[C@H](C)Cc1ccc(OC)c(S(N)(=O)=O)c1 [tamsulosin],0.50
5,O=C(O)COC(=O)Cc1ccccc1Nc1c(Cl)cccc1Cl [aceclofenac],0.46
6,CCOC(=O)C1=C(COCCN)NC(C)=C(C(=O)OC)C1c1ccccc1Cl (stereo not shown) [amlodipine],0.62
7,OC[C@@H](O)[C@@H](O)[C@H](O)[C@H](O)CO [D-mannitol],0.66
8,CCCC1O[C@@H]2C[C@H]3[C@@H]4CCC5=CC(=O)C=C[C@]5(C)[C@H]4[C@@H](O)C[C@]3(C)[C@]2(C(=O)CO)O1 (stereo partly shown) [budesonide],0.91
9,CCCCC(=O)N(Cc1ccc(-c2ccccc2-c2nnn[nH]2)cc1)[C@H](C(=O)O)C(C)C [valsartan],0.47
10,COC(=O)C1=C(C)NC(C)=C(C(=O)OCCN2CCN(C(c3ccccc3)c3ccccc3)CC2)C1c1cccc([N+](=O)[O-])c1 (stereo not shown) [manidipine],0.54
11,CCC(=O)O[C@]1(C(=O)CCl)[C@@H](C)C[C@H]2[C@@H]3CCC4=CC(=O)C=C[C@]4(C)[C@@]3(F)[C@@H](O)C[C@@]21C [clobetasol propionate],0.86
